{"source": "patent US7662853B2", "about": "“Monoacetyldiacylglycerol derivative for the treatment of sepsis” (priority 2004, dated 2010)", "key": {"T-cells": {"test_system": "T-cells", "assay": "Measurement of cytokine by Bio-plex in activated T-cells", "format": "cell-based", "conditions": "anti-CD3, anti-CD28 treated T-cells, 0.1, 1 μg/ml, 5 days, vs control", "protocol": "Bio-plex can measure huge amount of cytokine at a time in a well. Thus, Bio-plex kit was used to quantify 8 kinds of cytokines of Th1/Th2 channels, which are secreted when T-cells are activated. Sterilized 24-well tissue culture plate (Nunc, Denmark) was treated with anti-CD3 and anti-CD28. Then, the plate was inoculated with T-cells by 2×10^6 cells/ml. […] On the 5th day, culture solutions at each different stage were recovered, followed by centrifugation. Supernatants were obtained and cytokine secreted therein was quantified by using Bio-plex kit according to the manufacturer's instruction (Bio-rad)."}, "[1]": {"test_system": "C3H/HeN mice with CLP-induced septic shock", "assay": "CLP (Cecal Ligation and Puncture) test, septic shock", "format": "in vivo", "conditions": "50 mg/kg oral", "description": "Ten 7-10 week old male inbred C3H/HeN mice (20-25 g of weight) were grouped. […] Septic shock was induced by CLP model in anesthetized mice. […] Control group was orally administered PBS+5% ethanol solution."}, "[2]": {"assay": "Toxicity test, single oral administration", "format": "in vivo", "conditions": "mouse, in vivo; ICR mice, oral, single dose, 14 days", "protocol": "(§1) Control group was treated 5% ethanol solution. IRC mice, housed in SPF facility were used as test animals. […] Weight increment rate(%)={Weight of day 14−Weight of day 0}÷{Weight of day 0}×100 [Mathematical Formula 2]"}, "ICR mice": {"test_system": "ICR mice", "assay": "Toxicity test, single oral administration", "format": "in vivo", "conditions": "for Number of dead mice/Number of orally administered mice: 14 days", "protocol": "as §1"}, "KIBG-5 cells": {"test_system": "KIBG-5 cells", "assay": "Biliary cancer model in hamster (7 treatment groups)", "format": "in vivo, Syrian golden hamsters", "conditions": "Compound 3 25 mg/kg/day P.O.", "protocol": "Six week old female Syrian golden hamsters (Harlan, Indianapolis, […], USA) were housed in specific pathogen free unit. 5×10^5 KIBG-5 cells (Molecular therapy, Vol. 3, No. 4, pp 431-437) suspended in 100 μl of RPMI 1640 serum-free medium were intravenously injected via femoral vein. And 5×10^5 KIBG-5 cells suspended in 100 μl of RPMI 1640 serum-free medium were subcutaneously injected to the flank of the hamsters. Hamsters injected KIBG-5 were divided into following 7 groups;\n1) Control group treated with RPMI medium,\n2) Experimental group treated with non-modified BMSC cells (2.5×10^6) (Leukemia & Lymphoma, Vol. 44, No. 11, pp 1973-1978),\n3) Experimental group treated with BMSC cells modified with Ad/ΔE1 50 MOI (Leukemia & Lymphoma, Vol. 44, No. 11, pp 1973-1978),\n4) Experimental group treated with DC+ tumor lysate (5×10^6),\n5) Experimental group treated with BMSC cells modified with Ad/hIL-2 50 MOI (Leukemia & Lymphoma, Vol. 44, No. 11, pp 1973-1978),\nOne week after the injection of cancer cells to hamsters (BMSC treated group), 2.5×10^6 of BMSC cells were injected once again to each hamster. In the case of DC+tumor lysate treated group, 5×10^6 of DC cells and tumor lysate were injected to each hamster (with subcutaneous injection or intravenous injection) at the first, second, third, forth, sixth, eighth week, followed by observation for 12 weeks."}, "rats": {"test_system": "rats", "assay": "Long term hepatotoxicity test", "format": "in vivo", "conditions": "100 mg/Kg body weight/day P.O. for 4 weeks", "description": "At the end of 4 weeks liver histology was observed."}}, "data": [{"smiles": "CCCCC/C=C\\C/C=C\\CCCCCCCC(=O)OC(COC(C)=O)COC(=O)CCCCCCCCCCCCCCC", "note": "(stereo not drawn) [Compound 3]", "values": [{"measurement": "amounts of secreted cytokines IL-2, IL-4 and IL-5", "setting": "T-cells", "result": "bigger than those in a control group"}, {"measurement": "Survival rate", "setting": "[1]; 0 hour", "result": 100, "unit": "%"}, {"measurement": "Survival rate", "setting": "[1]; 24 hours", "result": 100, "unit": "%"}, {"measurement": "Survival rate", "setting": "[1]; 48 hours", "result": 100, "unit": "%"}, {"measurement": "Survival rate", "setting": "[1]; 72 hours", "result": 100, "unit": "%"}, {"measurement": "Survival rate", "setting": "[1]; 96 hours", "result": 100, "unit": "%"}, {"measurement": "Survival rate", "setting": "[1]; 120 hours, 50 mg/kg", "result": 100, "unit": "%"}, {"measurement": "LD50 at 14 days", "setting": "[2]", "result": "> 2000", "unit": "mg/kg"}, {"measurement": "Death rate", "setting": "ICR mice; 62.5 mg/kg oral once", "result": 12.5, "unit": "%"}, {"measurement": "Number of dead mice/Number of orally administered mice", "setting": "ICR mice; 62.5 mg/kg oral once", "result": "1/8"}, {"measurement": "toxicity", "setting": "ICR mice; 62.5 mg/kg˜2 g/kg oral once, 14 days observation", "result": "No toxicity was seen"}, {"measurement": "Death rate", "setting": "ICR mice; 125 mg/kg oral once", "result": 30, "unit": "%"}, {"measurement": "Number of dead mice/Number of orally administered mice", "setting": "ICR mice; 125 mg/kg oral once", "result": "0/8"}, {"measurement": "Death rate", "setting": "ICR mice; 250 mg/kg oral once", "result": 12.5, "unit": "%"}, {"measurement": "Number of dead mice/Number of orally administered mice", "setting": "ICR mice; 250 mg/kg oral once", "result": "1/8"}, {"measurement": "Death rate", "setting": "ICR mice; 500 mg/kg oral once", "result": 22.2, "unit": "%"}, {"measurement": "Number of dead mice/Number of orally administered mice", "setting": "ICR mice; 500 mg/kg oral once", "result": "2/9"}, {"measurement": "Death rate", "setting": "ICR mice; 1000 mg/kg oral once", "result": 0, "unit": "%"}, {"measurement": "Number of dead mice/Number of orally administered mice", "setting": "ICR mice; 1000 mg/kg oral once", "result": "0/9"}, {"measurement": "Death rate", "setting": "ICR mice; 2000 mg/kg oral once", "result": 0, "unit": "%"}, {"measurement": "Number of dead mice/Number of orally administered mice", "setting": "ICR mice; 2000 mg/kg oral once", "result": "0/9"}, {"measurement": "tumor formation", "setting": "KIBG-5 cells; 4 weeks after cancer cell injection", "result": "no tumor were found"}, {"measurement": "metastatic lung lesions", "setting": "KIBG-5 cells; 8 weeks after cancer cell injection (i.v.)", "result": "only one minute lung lesion was found"}, {"measurement": "adverse effect (liver function test, lipid profile, cytochrome C-450 activity, liver histology)", "setting": "rats", "result": "No significantly adverse effect was observed"}]}]}
